Data published in US20060058379A1, “Connexin 26 inhibitor and cancer metastasis inhibitors” (priority 2002, published 2006).
“Also recorded” adds a separate entry of the source.

What was measured:
connexin 26 = biological target: T1, connexin 26 (Rattus norvegicus, UniProt P21994); assay: Dye-transfer assay (GJIC) in HeLa-Cx26 cells; format: cell-based; conditions: HeLa-Cx26, calcein/DiI dye transfer, FIG. 1
T1 construct: expressed in transfected cells; host or cells: HeLa (human cervical carcinoma) subclone HeLa-Cx26
From the text: The connexin 26 inhibitory activity can be evaluated with dye-transfer assay, for example. Specifically, a gap junction level (GJIC score) against the connexin 26 is used for evaluation (c.f. Japanese Laid-Open Patent Publication No. 17184/2001, “Tokukai 2001-17184, publication date: Jan. 23, 2001, and M. Mensil et al. Cancer Res. Vol 55, 629-639 1995.).
With this method, labelling dye, which can be transferred to outside of cells only through the gap junctions, is introduced into cells. Then the cells are smeared on a monolayer culture or a tissue culture. […]
GJIC score can be calculated as described in following examples. That is, if no dye-coupling occurs with respect to the donor cells, “0” is scored; “1” is scored if dye-coupling from the donor cell to an adjacent receptive cell occurs; and “2” is scored if dye-coupling from the donor cell to a second adjacent cell occurs. In this manner, when dye-coupling to n^th adjacent cell from the donor cell occurs, “n” (an integer) is scored. […]
(§1) Cells containing the gap junction-impermeable DiI (red fluorescence) were identified as donor cells. […]
The level of gap junction cell-to-cell communication (GJIC) was scored by the following methods. […]

connexin 43 = biological target: T2, connexin 43 (Rattus norvegicus, UniProt P08050); assay: Dye-transfer assay (GJIC) in HeLa-Cx43 cells; format: cell-based; conditions: HeLa-Cx43, calcein/DiI dye transfer, FIG. 1
T2 construct: contained a cDNA fragment of an entire coding region of rat Cx43; expressed in transfected cells; host or cells: HeLa cells stably transfected with pCX4bsr-Cx43 (clone HeLa-Cx43)
From the text: A pCX4bsr vector was derived from the pCXbsr vector (T Akagi., et al., 2000, Proc. Natl. Acad. Sci. USA) with minor modification. The pCX4bsr vector was kindly given by Dr. T Akagi (Osaka Bioscience Institute, Osaka, Japan). The pBluescriptII SK+plasmid vector contained a cDNA fragment of an entire coding region of rat Cx43 between the Spel and ClaI sites, and was constructed previously (Y. Omori., et al., 1998, Int. J. Cancer). The Cx43cDNA was excised by digesting NotI and HincII, and being ligated with the pCX4bsr where NotI and HincII were digested. HeLa cells were transfected with the resulting pCX4bsr-Cx43 vector by using the TransFast transfection regent. […]
as §1
The level of gap junction cell-to-cell communication (GJIC) was scored by the following methods.
Donor cells were scored as 0 for no dye-coupling, as 1 for dye-coupling from a donor cell to an adjacent recipient cell, and as 2 or 3 when calcein transferred to the adjacent recipient cell further transfers to a second or a third adjacent cell, subsequently, in a direction away from the donor cell. […] The experiments were repeated three times and mean and standard deviation of score counts were calculated for each factor. […]

[1] = test system: BL6 cells (substrains of B16 mouse melanoma cells); assay: Cancer metastasis inhibitory action test 2: spontaneous lung metastasis after subcutaneous BL6 inoculation; format: in vivo; conditions: C57B1/6 mice, counted four weeks after dismembering
Description: After subcutaneously inoculating 1×10^5 BL6 cells (substrains of B16 mouse melanoma cells) to a planter of each C57B1/6 mouse, the mice were classified into three groups. • 1) Control mice (Nt) with no treatment but transplanting […]; • 2) Oleamide (25 mg/kg/day) administration group: peritoneal injection of olive oil 0.2 ml dissolved with oleamide at concentration of 25 mg/kg/day once a day on consecutive days; and • 3) MI-18 (10 mg/kg/day) administration group: olive oil 0.2 ml dissolved with MI-18 at concentration of 10 mg/kg/day once a day on consecutive days.
The mice were treated in the above manners every day after the BL6 cells inoculation. Then, on about 18th day, tumors (about eight mm radical) formed at the injected points were removed by dismembering at knee joints. Then the mice were treated in the above manners for another two days after the dismembering. After that, mice were fed without the treatments. At four weeks after dismembering at the knee joints, the mice were euthanized, and metastasized tubercles in both left and right lungs (the number of focuses) were counted visually (refer to FIG. 2 (a) through (c) and FIG. 3). Cancer metastasis inhibitory action was evaluated using 15 mice for each group. […] Therefore, these materials are highly safe. […]

[2] = Death of mice due to causes other than cancer under daily administration (Example 5); format: in vivo, mouse; conditions: C57B1/6 mice, approximately two months, FIG. 5
[3] = test system: BL6 cells (substrains of B16 mouse melanoma cells); assay: Cancer metastasis inhibitory action test 1: spontaneous lung metastasis after subcutaneous BL6 inoculation; format: in vivo; conditions: C57B1/6 mice; for metastasized tubercles in lungs (number of foci) vs vehicle group: counted four weeks after dismembering
Description: The mice were treated in the above manners on consecutive days after the BL6 cells inoculation. Then, on about 18th day, tumors (about six mm in diameter) formed at inoculation points were removed by dismembering at knee joints. Then the mice were treated in the above manners for another two days after the dismembering. After that, the mice were fed without the treatments. At four weeks after the dismembering at the knee joints, the mice were euthanized, and metastasized tubercles in both left and right lungs (the number of focuses) were counted visually (refer to FIG. 2 (a) through (c) and FIG. 3). Cancer metastasis inhibitory action was evaluated using 10 mice for each group.

T2 sequence (P08050 2-382): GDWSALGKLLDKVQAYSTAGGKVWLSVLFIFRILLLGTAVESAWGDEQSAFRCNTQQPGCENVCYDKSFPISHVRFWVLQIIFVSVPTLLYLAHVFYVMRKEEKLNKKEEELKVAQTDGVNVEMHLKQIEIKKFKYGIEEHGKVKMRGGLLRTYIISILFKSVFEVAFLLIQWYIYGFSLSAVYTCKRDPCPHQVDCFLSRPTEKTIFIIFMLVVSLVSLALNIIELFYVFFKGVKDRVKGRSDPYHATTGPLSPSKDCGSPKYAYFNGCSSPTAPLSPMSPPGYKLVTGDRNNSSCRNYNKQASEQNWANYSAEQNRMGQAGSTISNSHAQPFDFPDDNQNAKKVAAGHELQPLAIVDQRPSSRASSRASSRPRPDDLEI

Structure (SMILES) | inhibitory activity against connexin 26 (gap junction dye-coupling) (connexin 26) | inhibitory activity against connexin 43 (gap junction dye-coupling) (connexin 43) | metastasized tubercles in lungs (number of foci) vs untreated group ([1]; 10 mg/kg/day once a day) | death of mice due to causes other than cancer ([2]; 10 mg/kg/day every day) | metastasized tubercles in lungs (number of foci) vs vehicle group ([3]; 25 mg/kg/day peritoneal injection twice a day) | metastasized tubercles in lungs (number of foci) vs vehicle group ([3]; 50 mg/kg/day twice a day) | metastasized tubercles in lungs (number of foci) ([3]; 500 mg/kg/day, FIG. 2 (d)) | metastasized tubercles in lungs (number of foci) vs untreated group ([1]; 25 mg/kg/day peritoneal injection once a day) | death of mice due to causes other than cancer ([2]; 25 mg/kg/day every day, 25 mg/kg/day)
CCCCCCCC[C@H]1O[C@H]1CCCCCCCC(N)=O (relative stereo) [MI-18, 8-[(2S*3R*)-3-octyloxirane-2-yl]octanamide] | exhibits inhibitory activity | specifically inhibits only connexin 26 | fewer metastasized tubercles and significantly exhibited cancer metastasis inhibitory activity | no mice died due to other causes but cancer | – | – | – | – | –
CCCCCCCC/C=C\CCCCCCCC(N)=O [oleamide, 9(Z)-Octadecenamide] | exhibited inhibitory action; also recorded: exhibits inhibitory activity | exhibited inhibitory action | – | – | fewer metastasized tubercles and significantly exhibited cancer metastasis inhibitory action | fewer metastasized tubercles and significantly exhibited cancer metastasis inhibitory action | the similar result was obtained | fewer metastasized tubercles and significantly exhibited cancer metastasis inhibitory activity | death rates due to causes other than cancer were low; also recorded: no mice died due to other causes but cancer
